Measured values from patent publication US11046675B2, “Substituted isoquionline derivatives as immunomudulators” (Bristol-Myers Squibb Company, priority 2017, dated 2021).

Molecular target: PD-1/PD-L1 (Homo sapiens (Human), UniProt Q9NZQ7)
Assay: PD-1/PD-L1 Homogenous Time-Resolved Fluorescence (HTRF) binding assay
Details: PD-L1-His 10 nM, PD-1-Ig 20 nM; reported as range class; read-out: IC50 (μM) (Range or value)
Source text: The ability of the compounds of formula (I) to bind to PD-L1 was investigated using a PD-1/PD-L1 Homogenous Time-Resolved Fluorescence (HTRF) binding assay.
Homogenous Time-Resolved Fluorescence (HTRF) Binding Assay
The interaction of PD-1 and PD-L1 can be assessed using soluble, purified preparations of the extracellular domains of the two proteins. The PD-1 and PD-L1 protein extracellular domains were expressed as fusion proteins with detection tags, for PD-1, the tag was the Fc portion of Immunoglobulin (PD-1-Ig) and for PD-L1 it was the 6 histidine motif (PD-L1-His). All binding studies were performed in an HTRF assay buffer consisting of dPBS supplemented with 0.1% […] bovine serum albumin and 0.05% (v/v) Tween-20. For the h/PD-L1-His binding assay, inhibitors were pre-incubated with PD-L1-His (10 nM final) for 15m in 4 μl of assay buffer, followed by addition of PD-1-Ig (20 nM final) in 1 μl of assay buffer and further incubation for 15 m. HTRF detection was achieved using europium crypate-labeled anti-Ig (1 nM final) and allophycocyanin (APC) labeled anti-His (20 nM final). Antibodies were diluted in HTRF detection buffer and 5 μl was dispensed on top of the binding reaction. The reaction mixture was allowed to equilibrate for 60 minutes and the resulting signal (665 nm/620 nm ratio) was obtained using an EnVision fluorometer. Additional binding assays were established between the human proteins PD-1-Ig/PD-L2-His (20 & 2 nM, respectively) and CD80-His/PD-L1-Ig (100 & 10 nM, respectively).
Recombinant Proteins: Human PD-1 (25-167) with a C-terminal human Fc domain of immunoglobulin G (Ig) epitope tag [hPD-1 (25-167)-3S-IG] and human PD-L1 (18-239) with a C-terminal His epitope tag [hPD-L1(18-239)-TVMV-His] were expressed in HEK293T cells and purified sequentially by ProteinA affinity chromatography and size exclusion chromatography. Human PD-L2-His and CD80-His was obtained through commercial sources.

Sequence of PD-1/PD-L1 (Q9NZQ7 other isoform, or with tags, fused parts or gaps): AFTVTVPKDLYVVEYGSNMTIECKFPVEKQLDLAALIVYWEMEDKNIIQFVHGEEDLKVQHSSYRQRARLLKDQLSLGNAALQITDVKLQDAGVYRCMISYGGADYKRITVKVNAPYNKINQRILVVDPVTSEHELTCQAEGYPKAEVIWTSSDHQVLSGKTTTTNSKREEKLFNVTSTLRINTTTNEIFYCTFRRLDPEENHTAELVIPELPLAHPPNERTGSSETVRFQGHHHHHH

`Cc1c(COc2cc3c(c(OCc4cncc(C#N)c4)c2)CN(CC(=O)O)CC3)cccc1-c1ccc2c(c1)OCCO2` [Example 1001, 2-(8-((5-cyanopyridin-3-yl)methoxy)-6-((3-(2,3-dihydrobenzo[b][1,4]dioxin-6-yl)-2-methylbenzyl)-oxy)-3,4-dihydroisoquinolin-2(1H)-yl)acetic acid] was tested. Which IC50 did it give?
The IC50 was 0.002 to 0.015 µM.

For `Cc1c(COc2cc(OCc3cncc(C#N)c3)cc3c2CN(CC(=O)O)CC3)cccc1-c1ccc2c(c1)OCCO2` [Example 1002, 2-(6-((5-cyanopyridin-3-yl)methoxy)-8-((3-(2,3-dihydrobenzo[b][1,4]-dioxin-6-yl)-2-methylbenzyl)oxy)-3,4-dihydroiso-quinolin-2(1H)-yl)acetic acid], which IC50 is on record?
Its IC50 is 0.051 to 1.5 µM.

How did the IC50 turn out when `Cc1c(COc2cc(O)c3c(c2)CCN(CC(=O)O)C3)cccc1-c1ccc2c(c1)OCCO2` [Example 1003, 2-(6-((3-(2,3-dihydrobenzo[b][1,4]dioxin-6-yl)-2-methylbenzyl)oxy)-8-hydroxy-3,4-dihydroisoquinolin-2(1H)-yl)acetic acid] was run?
Its IC50 is 0.051 to 1.5 µM.

For `Cc1c(COc2ccc3c(c2)CN[C@@H](C(=O)O)C3)cccc1-c1ccc2c(c1)OCCO2` [Example 1004, (R)-7-((3-(2,3-dihydrobenzo[b][1,4]dioxin-6-yl)-2-methylbenzyl)oxy)-1,2,3,4-tetrahydroisoquinoline-3-carboxylic acid], which IC50 is on record?
Its IC50 is 1.51 to 10 µM.

Which IC50 does the source give for `COC(=O)c1cncc(COc2cc(OCc3cccc(-c4cccc(OCCCN5CC[C@@H](O)C5)c4C)c3C)c(Cl)c3c2CN(CC(=O)O)CC3)c1` [Example 1007, (R)-2-(5-chloro-6-((3′-(3-(3-hydroxypyrrolidin-1-yl)propoxy)-2,2′-dimethyl-[1,1′-biphenyl]-3-yl)methoxy)-8-((5-(methoxycarbonyl)pyridin-3-yl)methoxy)-3,4-dihydro-isoquinolin-2(1H)-yl)acetic acid] here?
The IC50 was 0.016 to 0.05 µM.

Same assay, conditions: PD-L1-His 10 nM, PD-1-Ig 20 nM; reported as value; read-out: IC50 (μM) (Range or value)

Which IC50 does the source give for `Cc1c(COc2ccc3c(c2)CN[C@H](C(=O)O)C3)cccc1-c1ccc2c(c1)OCCO2` [Example 1005, (S)-7-((3-(2,3-dihydrobenzo[b][1,4]dioxin-6-yl)-2-methylbenzyl)oxy)-1,2,3,4-tetrahydroisoquinoline-3-carboxylic acid] here?
The IC50 was greater than 10 µM.

With `Cc1c(COc2cc(OCc3cncc(C#N)c3)c3c(c2Cl)CCN(CC(=O)O)C3)cccc1-c1cccc(OCCCN2CC[C@@H](O)C2)c1C` [Example 1006, (R)-2-(5-chloro-8-((5-cyanopyridin-3-yl)methoxy)-6-((3′-(3-(3-hydroxypyrrolidin-1-yl)propoxy)-2,2′-dimethyl-[1,1′-biphenyl]-3-yl)methoxy)-3,4-dihydroisoquinolin-2(1H)-yl)acetic acid] as the molecule, how does the IC50 read?
The IC50 was 0.002 µM.

Which IC50 does the source give for `COC(=O)CN1CCc2c(Cl)c(OCc3cccc(-c4cccc(OCCCN5CC[C@@H](O)C5)c4C)c3C)cc(OCc3cncc(C(=O)OC)c3)c2C1` [Example 1008, methyl (R)-5-(((5-chloro-6-((3′-(3-(3-hydroxypyrrolidin-1-yl)propoxy)-2,2′-dimethyl-[1,1′-biphenyl]-3-yl)methoxy)-2-(2-methoxy-2-oxoethyl)-1,2,3,4-tetrahydroisoquinolin-8-yl)oxy)methyl)nicotinate] here?
The IC50 was greater than 10 µM.
